For assay [1], the target named is T1, Mitogen-activated protein kinase kinase kinase 6 (Homo sapiens) (UniProt O95382).
T1 sequence (whole entry): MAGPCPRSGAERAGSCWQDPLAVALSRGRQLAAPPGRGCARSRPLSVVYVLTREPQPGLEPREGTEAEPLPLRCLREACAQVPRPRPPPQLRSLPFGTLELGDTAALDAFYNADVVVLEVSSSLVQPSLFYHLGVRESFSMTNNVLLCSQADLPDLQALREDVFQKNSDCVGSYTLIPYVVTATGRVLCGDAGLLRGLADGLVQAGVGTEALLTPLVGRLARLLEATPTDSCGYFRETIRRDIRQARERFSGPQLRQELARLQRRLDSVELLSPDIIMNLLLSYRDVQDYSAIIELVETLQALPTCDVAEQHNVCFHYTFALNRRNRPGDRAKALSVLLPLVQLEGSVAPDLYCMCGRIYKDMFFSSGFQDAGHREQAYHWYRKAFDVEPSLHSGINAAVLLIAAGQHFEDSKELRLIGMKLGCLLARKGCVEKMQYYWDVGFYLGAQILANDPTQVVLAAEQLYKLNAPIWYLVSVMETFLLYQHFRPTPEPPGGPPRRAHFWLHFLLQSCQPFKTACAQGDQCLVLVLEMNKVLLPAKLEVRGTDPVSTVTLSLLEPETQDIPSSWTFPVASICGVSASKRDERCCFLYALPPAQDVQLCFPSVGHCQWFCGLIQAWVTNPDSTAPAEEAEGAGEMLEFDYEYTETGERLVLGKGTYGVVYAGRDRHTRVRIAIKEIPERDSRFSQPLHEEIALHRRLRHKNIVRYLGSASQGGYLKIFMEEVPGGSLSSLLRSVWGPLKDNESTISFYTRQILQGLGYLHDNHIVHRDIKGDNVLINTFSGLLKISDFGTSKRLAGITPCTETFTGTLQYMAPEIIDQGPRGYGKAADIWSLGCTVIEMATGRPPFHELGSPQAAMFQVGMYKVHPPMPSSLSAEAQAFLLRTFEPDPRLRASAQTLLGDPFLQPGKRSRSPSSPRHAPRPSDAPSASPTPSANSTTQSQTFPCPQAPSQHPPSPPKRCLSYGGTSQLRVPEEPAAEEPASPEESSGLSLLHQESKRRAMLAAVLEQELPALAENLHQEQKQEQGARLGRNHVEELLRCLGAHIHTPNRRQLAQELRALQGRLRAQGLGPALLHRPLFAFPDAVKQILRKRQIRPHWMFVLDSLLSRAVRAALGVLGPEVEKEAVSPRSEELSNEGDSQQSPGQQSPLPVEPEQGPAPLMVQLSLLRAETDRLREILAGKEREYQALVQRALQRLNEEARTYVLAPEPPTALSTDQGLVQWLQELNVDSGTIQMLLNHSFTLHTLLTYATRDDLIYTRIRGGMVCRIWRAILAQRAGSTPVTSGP
As to the kind of experiment: Inhibition of MAP3K6 conserved Lys1 (IAIKEIPER) in human PBMC at 1 uM.

Assay [2] deals with Myosin light chain kinase, smooth muscle (Homo sapiens) (UniProt Q15746). As to the kind of experiment: Inhibition of smMLCK conserved Lys2 (QGIVHLDLKPENIMCVNK) in human PBMC at 1 uM.
The target in assay [3] is Tyrosine-protein kinase ABL2 (Homo sapiens) (UniProt P42684). As to the kind of experiment: Inhibition of ARG labeling at […] (LMTGDTYTAHAGAKFPIK) in human PBMC at 1 uM.
Sequence of Tyrosine-protein kinase ABL2 (Homo sapiens) (P42684 whole entry): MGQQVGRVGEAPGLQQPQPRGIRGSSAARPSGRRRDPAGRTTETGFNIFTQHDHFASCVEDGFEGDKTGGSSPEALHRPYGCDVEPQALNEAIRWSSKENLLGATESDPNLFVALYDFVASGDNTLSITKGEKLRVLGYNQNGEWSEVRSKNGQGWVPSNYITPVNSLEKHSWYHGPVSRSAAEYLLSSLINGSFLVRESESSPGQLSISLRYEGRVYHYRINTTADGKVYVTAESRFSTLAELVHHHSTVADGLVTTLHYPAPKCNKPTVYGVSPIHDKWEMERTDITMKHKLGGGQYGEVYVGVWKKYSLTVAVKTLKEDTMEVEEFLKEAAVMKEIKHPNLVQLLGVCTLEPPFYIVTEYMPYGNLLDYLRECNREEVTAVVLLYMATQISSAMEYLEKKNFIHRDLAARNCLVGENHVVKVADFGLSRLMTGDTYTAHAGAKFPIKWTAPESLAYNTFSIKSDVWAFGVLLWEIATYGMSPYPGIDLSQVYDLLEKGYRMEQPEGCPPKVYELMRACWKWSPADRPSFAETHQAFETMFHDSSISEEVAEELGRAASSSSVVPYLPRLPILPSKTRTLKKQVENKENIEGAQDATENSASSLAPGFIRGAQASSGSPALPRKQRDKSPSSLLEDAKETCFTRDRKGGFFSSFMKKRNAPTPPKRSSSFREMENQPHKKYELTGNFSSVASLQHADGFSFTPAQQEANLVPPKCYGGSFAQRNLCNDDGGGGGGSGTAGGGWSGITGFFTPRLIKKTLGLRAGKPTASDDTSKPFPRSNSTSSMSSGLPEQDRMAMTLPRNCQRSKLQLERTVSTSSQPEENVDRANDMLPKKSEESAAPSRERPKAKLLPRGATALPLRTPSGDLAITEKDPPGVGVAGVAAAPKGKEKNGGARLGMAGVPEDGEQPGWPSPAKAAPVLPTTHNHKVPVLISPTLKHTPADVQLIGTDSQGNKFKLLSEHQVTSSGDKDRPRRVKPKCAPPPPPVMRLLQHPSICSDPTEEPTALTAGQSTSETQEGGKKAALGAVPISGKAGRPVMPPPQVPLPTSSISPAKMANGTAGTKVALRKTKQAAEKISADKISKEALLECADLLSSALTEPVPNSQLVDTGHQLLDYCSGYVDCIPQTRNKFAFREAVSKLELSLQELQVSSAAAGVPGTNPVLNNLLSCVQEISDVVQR
The target in assay [4] is STE20-like serine/threonine-protein kinase (Homo sapiens) (UniProt Q9H2G2). As to the kind of experiment: Inhibition of SLK conserved Lys2 (DLKAGNILFTLDGDIK) in human PBMC at 1 uM.
Sequence of STE20-like serine/threonine-protein kinase (Homo sapiens) (Q9H2G2 whole entry, looked up): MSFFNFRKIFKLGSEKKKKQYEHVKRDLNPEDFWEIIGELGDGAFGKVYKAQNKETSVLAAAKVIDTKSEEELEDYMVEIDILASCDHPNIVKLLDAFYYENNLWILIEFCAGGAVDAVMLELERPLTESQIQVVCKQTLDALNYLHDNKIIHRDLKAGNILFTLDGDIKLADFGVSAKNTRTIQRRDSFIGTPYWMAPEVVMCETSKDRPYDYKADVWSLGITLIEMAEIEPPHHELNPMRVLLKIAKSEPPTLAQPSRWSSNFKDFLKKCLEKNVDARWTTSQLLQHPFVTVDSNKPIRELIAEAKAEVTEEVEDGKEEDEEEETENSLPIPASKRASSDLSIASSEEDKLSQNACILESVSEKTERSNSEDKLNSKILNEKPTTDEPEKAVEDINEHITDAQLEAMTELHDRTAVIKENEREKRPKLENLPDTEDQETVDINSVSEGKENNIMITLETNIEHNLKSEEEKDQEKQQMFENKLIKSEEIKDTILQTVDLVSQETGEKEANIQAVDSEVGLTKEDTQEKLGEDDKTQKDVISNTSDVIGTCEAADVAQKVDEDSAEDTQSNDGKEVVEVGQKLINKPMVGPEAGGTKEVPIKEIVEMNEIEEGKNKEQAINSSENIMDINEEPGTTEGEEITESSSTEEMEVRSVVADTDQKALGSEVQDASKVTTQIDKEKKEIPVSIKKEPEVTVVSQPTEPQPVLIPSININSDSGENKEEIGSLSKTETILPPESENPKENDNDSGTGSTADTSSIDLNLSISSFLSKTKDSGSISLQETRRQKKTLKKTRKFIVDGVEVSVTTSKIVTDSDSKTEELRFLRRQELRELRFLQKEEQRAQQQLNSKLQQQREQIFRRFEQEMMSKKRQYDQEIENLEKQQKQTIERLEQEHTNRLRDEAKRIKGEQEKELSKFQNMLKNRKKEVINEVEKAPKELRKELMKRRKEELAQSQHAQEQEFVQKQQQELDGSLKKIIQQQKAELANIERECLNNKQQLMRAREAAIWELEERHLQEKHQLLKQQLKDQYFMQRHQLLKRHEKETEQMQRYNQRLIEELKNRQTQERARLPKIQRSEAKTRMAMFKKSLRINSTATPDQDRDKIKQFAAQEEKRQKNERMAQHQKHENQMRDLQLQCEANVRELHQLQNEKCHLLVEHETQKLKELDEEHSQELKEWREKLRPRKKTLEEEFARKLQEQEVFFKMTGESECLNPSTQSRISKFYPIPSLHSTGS
Assay [5] addresses Leucine-rich repeat serine/threonine-protein kinase 2 (Homo sapiens, UniProt Q5S007). As to the kind of experiment: Inhibition wild type LRRK2 (unknown origin) Ser935 phosphorylation in HEK293 cells. The class given is cell-based.
Assay [6] concerns the target Cyclin-dependent kinase 11B (Homo sapiens) (UniProt P21127). As to the kind of experiment: Inhibition of CDK11 labeling at conserved Lys2 (DLKPANILVMGEGPER) in human PBMC at 1 uM.
The target in assay [7] is Cyclin-dependent kinase 5 (Homo sapiens) (UniProt Q00535). As to the kind of experiment: Inhibition of CDK5 labeling at conserved Lys2 (DLKPQNLLINR) in human PBMC at 0.1 uM.
Sequence of Cyclin-dependent kinase 5 (Homo sapiens) (Q00535 whole entry, looked up): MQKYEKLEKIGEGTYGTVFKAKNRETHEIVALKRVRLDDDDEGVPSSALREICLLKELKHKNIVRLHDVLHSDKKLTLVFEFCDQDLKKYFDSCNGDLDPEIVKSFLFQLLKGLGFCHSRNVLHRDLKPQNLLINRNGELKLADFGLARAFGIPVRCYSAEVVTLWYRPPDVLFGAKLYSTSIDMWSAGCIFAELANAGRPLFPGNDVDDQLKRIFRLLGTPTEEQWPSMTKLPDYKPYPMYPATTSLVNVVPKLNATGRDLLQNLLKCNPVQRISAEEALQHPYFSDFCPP
In assay [8] the target is Tyrosine-protein kinase HCK (Homo sapiens) (UniProt P08631). As to the kind of experiment: Inhibition of HCK activation Loop (EGAKFPIKWTAPEAINFGSFTIK) in human PBMC at 1 uM.
Sequence of Tyrosine-protein kinase HCK (Homo sapiens) (P08631 2-526 limits assumed): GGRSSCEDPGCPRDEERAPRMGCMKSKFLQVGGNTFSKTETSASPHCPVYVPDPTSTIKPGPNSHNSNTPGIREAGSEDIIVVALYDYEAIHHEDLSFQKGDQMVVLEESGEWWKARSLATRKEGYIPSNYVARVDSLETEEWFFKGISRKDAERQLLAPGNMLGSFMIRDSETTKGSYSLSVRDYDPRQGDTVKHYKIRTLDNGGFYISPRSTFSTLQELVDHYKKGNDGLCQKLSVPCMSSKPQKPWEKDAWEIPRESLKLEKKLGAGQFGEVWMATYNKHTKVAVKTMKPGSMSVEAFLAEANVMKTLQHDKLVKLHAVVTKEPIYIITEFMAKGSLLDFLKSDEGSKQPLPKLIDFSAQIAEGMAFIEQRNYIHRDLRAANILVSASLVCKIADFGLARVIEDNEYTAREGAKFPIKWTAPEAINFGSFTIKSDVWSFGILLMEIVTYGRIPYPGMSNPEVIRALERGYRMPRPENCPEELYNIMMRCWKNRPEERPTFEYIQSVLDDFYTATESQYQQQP
In assay [9] the target is T2, Serine/threonine-protein kinase ULK3 (Homo sapiens) (UniProt Q6PHR2).
T2 sequence (whole entry): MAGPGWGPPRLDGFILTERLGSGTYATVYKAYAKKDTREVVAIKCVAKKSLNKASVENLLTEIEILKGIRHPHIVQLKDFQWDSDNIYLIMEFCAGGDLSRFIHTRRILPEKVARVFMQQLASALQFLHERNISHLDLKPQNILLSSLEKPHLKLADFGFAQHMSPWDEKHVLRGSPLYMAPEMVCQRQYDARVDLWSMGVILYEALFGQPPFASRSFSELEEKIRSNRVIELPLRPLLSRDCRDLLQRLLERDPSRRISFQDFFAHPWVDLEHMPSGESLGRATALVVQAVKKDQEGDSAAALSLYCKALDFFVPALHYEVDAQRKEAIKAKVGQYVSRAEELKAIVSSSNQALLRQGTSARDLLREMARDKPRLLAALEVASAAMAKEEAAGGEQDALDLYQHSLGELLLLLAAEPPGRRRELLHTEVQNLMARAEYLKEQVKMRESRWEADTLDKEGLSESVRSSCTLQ
As to the kind of experiment: Inhibition of ULK3 conserved Lys1 (EVVAIKCVAK) in human PBMC at 1 uM. To be noted: pooled result: one value given for 4 cell lines, strains, targets or settings.

Assay [10] has as its target Cyclin-dependent kinase 5 (Homo sapiens) (UniProt Q00535). As to the kind of experiment: Inhibition of CDK5 labeling at conserved Lys1 (NRETHEIVALKR) in human PBMC at 1 uM.
The target of assay [11] is T3, STE20-related kinase adapter protein alpha (Homo sapiens) (UniProt Q7RTN6).
T3 sequence (whole entry): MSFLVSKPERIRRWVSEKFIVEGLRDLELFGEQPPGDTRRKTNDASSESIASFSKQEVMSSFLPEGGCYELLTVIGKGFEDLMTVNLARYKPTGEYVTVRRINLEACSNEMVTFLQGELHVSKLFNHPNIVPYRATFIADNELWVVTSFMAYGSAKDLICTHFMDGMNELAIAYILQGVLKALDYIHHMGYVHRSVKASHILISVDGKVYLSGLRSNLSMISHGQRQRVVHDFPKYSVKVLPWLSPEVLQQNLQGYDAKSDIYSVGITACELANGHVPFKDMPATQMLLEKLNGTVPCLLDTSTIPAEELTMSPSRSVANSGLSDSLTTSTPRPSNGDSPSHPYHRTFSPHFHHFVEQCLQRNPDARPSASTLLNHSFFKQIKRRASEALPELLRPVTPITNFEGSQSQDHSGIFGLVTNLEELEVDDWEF
As to the kind of experiment: Inhibition of STLK5 conserved Lys2 (SVKASHILISVDGK) in human PBMC at 0.1 uM.

Sequence of Cyclin-dependent kinase 11B (Homo sapiens) (P21127 whole entry): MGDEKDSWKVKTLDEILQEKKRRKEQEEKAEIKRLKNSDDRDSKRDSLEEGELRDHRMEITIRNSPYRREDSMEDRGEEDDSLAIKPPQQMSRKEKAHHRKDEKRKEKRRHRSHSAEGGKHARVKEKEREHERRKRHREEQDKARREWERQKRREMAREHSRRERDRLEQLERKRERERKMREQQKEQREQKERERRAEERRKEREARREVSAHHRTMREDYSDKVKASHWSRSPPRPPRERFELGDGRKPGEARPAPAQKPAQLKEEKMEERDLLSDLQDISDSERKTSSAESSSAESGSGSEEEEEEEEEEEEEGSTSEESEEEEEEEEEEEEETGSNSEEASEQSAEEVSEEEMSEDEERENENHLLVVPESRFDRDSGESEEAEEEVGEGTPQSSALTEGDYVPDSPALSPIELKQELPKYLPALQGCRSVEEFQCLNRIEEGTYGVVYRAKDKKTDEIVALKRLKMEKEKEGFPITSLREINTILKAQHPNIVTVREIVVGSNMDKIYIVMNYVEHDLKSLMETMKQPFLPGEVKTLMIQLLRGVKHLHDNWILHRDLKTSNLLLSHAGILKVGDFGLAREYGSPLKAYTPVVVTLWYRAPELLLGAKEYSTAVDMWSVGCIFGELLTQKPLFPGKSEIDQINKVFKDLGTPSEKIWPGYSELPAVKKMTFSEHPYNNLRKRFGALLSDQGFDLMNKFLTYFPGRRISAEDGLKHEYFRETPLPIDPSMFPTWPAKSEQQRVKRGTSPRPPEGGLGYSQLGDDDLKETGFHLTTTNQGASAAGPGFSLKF

In general, inhibition refers to the drop in the measured response relative to a control, in per cent. By IC50 is commonly meant the point on the concentration scale where inhibition reaches its midpoint. A lower IC50 goes with inhibition by little substance. Consider `CC(C)n1cc(-c2cc(-c3ccc(CN4CCOCC4)cc3)cnc2N)nn1`, for which the inhibition was -3.3% in assay [1]; 3.2% in assay [2]; 34.8% in assay [3]; 30.5% in assay [4]; 1.5% in assay [6]; -3.3% in [7]. In addition, the inhibition in assay [8] was -2.2%; in assay [9], 23.5%; in [10], 1.9%; in assay [11], 26.2%. It took 2100 nM to reach half-maximal inhibition in assay [5] (IC50).

The values above are taken from ChEMBL document CHEMBL4043168, “The design and SAR of a novel series of 2-aminopyridine based LRRK2 inhibitors” (Bioorg Med Chem Lett, 2017).
